Measured values: ChEMBL document CHEMBL1201862, “PubChem BioAssay data set” (2004)
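Test compounds were applied to cells in 96-well plates for 48 hours at 5 doses. Here, GI50 denotes the concentration required for 50% inhibition of growth.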 Activity calls are given as the source filed them. Rule as the data show it: active = GI50 up to about 1.1 µM and inactive = higher.

What was measured:
Experiment in all cases: growth of human tumour cells (NCI), 48 h
HOP-62 = tested on: HOP-62
SK-MEL-5 = tested on: SK-MEL-5
BT-549 = tested on: BT-549
SK-MEL-2 = tested on: SK-MEL-2
SF-539 = tested on: SF-539
PC-3 = tested on: PC-3
HCT-15 = tested on: HCT-15
LOX IMVI = tested on: LOX IMVI
SNB-19 = tested on: SNB-19
EKVX = tested on: EKVX
OVCAR-3 = tested on: OVCAR-3
NCI-H460 = tested on: NCI-H460
RXF 393 = tested on: RXF 393
OVCAR-8 = tested on: OVCAR-8
UACC-257 = tested on: UACC-257
OVCAR-5 = tested on: OVCAR-5
ACHN = tested on: ACHN
U-251 = tested on: U-251
NCI-H23 = tested on: NCI-H23
K562 = tested on: K562
SN12C = tested on: SN12C
Hs-578T = tested on: Hs-578T
786-0 = tested on: 786-0
HT-29 = tested on: HT-29
SF-268 = tested on: SF-268
CAKI-1 = tested on: CAKI-1
UO-31 = tested on: UO-31
SK-OV-3 = tested on: SK-OV-3
MDA-MB-231 = tested on: MDA-MB-231
HCT-116 = tested on: HCT-116
HOP-92 = tested on: HOP-92
MCF7 = tested on: MCF7
M14 = tested on: M14
COLO 205 = tested on: COLO 205
A549 = tested on: A549
KM12 = tested on: KM12
MDA-MB-435 = tested on: MDA-MB-435
NCI/ADR-RES = tested on: NCI/ADR-RES
IGROV-1 = tested on: IGROV-1
A498 = tested on: A498
SK-MEL-28 = tested on: SK-MEL-28
TK-10 = tested on: TK-10
NCI-H226 = tested on: NCI-H226
T47D = tested on: T47D
RPMI-8226 = tested on: RPMI-8226
SF-295 = tested on: SF-295
UACC-62 = tested on: UACC-62
SW-620 = tested on: SW-620
Malme-3M = tested on: Malme-3M
OVCAR-4 = tested on: OVCAR-4
NCI-H522 = tested on: NCI-H522
SNB-75 = tested on: SNB-75
MDA-N = tested on: MDA-N
MOLT-4 = tested on: MOLT-4
HL-60 = tested on: HL-60
CCRF-CEM = tested on: CCRF-CEM
SR = tested on: SR

## CC(C)(CO)N1CCN(C(S)=Nc2ccccc2)CC1
HOP-62
  GI50: > 100 µM (inactive)
SK-MEL-5
  GI50: > 100 µM (inactive)
BT-549
  GI50: > 100 µM (inactive)
SK-MEL-2
  GI50: > 100 µM (inactive)
SF-539
  GI50: > 100 µM (inactive)
PC-3
  GI50: > 100 µM (inactive)
HCT-15
  GI50: > 100 µM
LOX IMVI
  GI50: > 100 µM (inactive)
SNB-19
  GI50: > 100 µM (inactive)
EKVX
  GI50: > 100 µM (inactive)
OVCAR-3
  GI50: > 100 µM (inactive)
NCI-H460
  GI50: > 100 µM (inactive)
RXF 393
  GI50: > 100 µM (inactive)
OVCAR-8
  GI50: > 100 µM (inactive)
UACC-257
  GI50: > 100 µM (inactive)
OVCAR-5
  GI50: > 100 µM (inactive)
ACHN
  GI50: > 100 µM (inactive)
U-251
  GI50: > 100 µM (inactive)
NCI-H23
  GI50: > 100 µM (inactive)
K562
  GI50: 64.3 µM (inactive)
SN12C
  GI50: > 100 µM (inactive)
Hs-578T
  GI50: > 100 µM (inactive)
786-0
  GI50: > 100 µM (inactive)
HT-29
  GI50: > 100 µM (inactive)
SF-268
  GI50: > 100 µM (inactive)
CAKI-1
  GI50: > 100 µM (inactive)
UO-31
  GI50: > 100 µM (inactive)
SK-OV-3
  GI50: > 100 µM (inactive)
MDA-MB-231
  GI50: > 100 µM (inactive)
HCT-116
  GI50: > 100 µM (inactive)
HOP-92
  GI50: > 100 µM (inactive)
MCF7
  GI50: > 100 µM (inactive)
M14
  GI50: > 100 µM (inactive)
COLO 205
  GI50: > 100 µM (inactive)
A549
  GI50: > 100 µM (inactive)
KM12
  GI50: > 100 µM (inactive)
MDA-MB-435
  GI50: > 100 µM (inactive)
NCI/ADR-RES
  GI50: > 100 µM (inactive)
IGROV-1
  GI50: > 100 µM (inactive)
A498
  GI50: > 100 µM (inactive)
SK-MEL-28
  GI50: > 100 µM (inactive)
TK-10
  GI50: > 100 µM (inactive)
NCI-H226
  GI50: > 100 µM (inactive)
T47D
  GI50: > 100 µM (inactive)
RPMI-8226
  GI50: > 100 µM (inactive)
SF-295
  GI50: > 100 µM (inactive)
UACC-62
  GI50: > 100 µM (inactive)
SW-620
  GI50: > 100 µM (inactive)
Malme-3M
  GI50: > 100 µM (inactive)
OVCAR-4
  GI50: > 100 µM (inactive)
NCI-H522
  GI50: > 100 µM (inactive)
SNB-75
  GI50: > 100 µM (inactive)
MDA-N
  GI50: > 100 µM (inactive)

## Cc1[nH]n(C2=NCCN2)c(=O)c1Cc1ccccc1
HOP-62
  GI50: > 100 µM (inactive)
SK-MEL-5
  GI50: > 100 µM (inactive)
BT-549
  GI50: > 100 µM (inactive)
SK-MEL-2
  GI50: > 100 µM (inactive)
MOLT-4
  GI50: > 100 µM (inactive)
SF-539
  GI50: > 100 µM (inactive)
PC-3
  GI50: > 100 µM (inactive)
HCT-15
  GI50: > 100 µM
HL-60
  GI50: > 100 µM (inactive)
CCRF-CEM
  GI50: > 100 µM (inactive)
LOX IMVI
  GI50: > 100 µM (inactive)
SNB-19
  GI50: > 100 µM (inactive)
EKVX
  GI50: > 100 µM (inactive)
OVCAR-3
  GI50: > 100 µM (inactive)
NCI-H460
  GI50: > 100 µM (inactive)
RXF 393
  GI50: > 100 µM (inactive)
OVCAR-8
  GI50: > 100 µM (inactive)
UACC-257
  GI50: > 100 µM (inactive)
OVCAR-5
  GI50: > 100 µM (inactive)
ACHN
  GI50: > 100 µM (inactive)
U-251
  GI50: > 100 µM (inactive)
NCI-H23
  GI50: > 100 µM (inactive)
K562
  GI50: > 100 µM (inactive)
SR
  GI50: > 100 µM (inactive)
Hs-578T
  GI50: > 100 µM (inactive)
786-0
  GI50: > 100 µM (inactive)
HT-29
  GI50: > 100 µM (inactive)
SF-268
  GI50: > 100 µM (inactive)
CAKI-1
  GI50: > 100 µM (inactive)
UO-31
  GI50: > 100 µM (inactive)
SK-OV-3
  GI50: > 100 µM (inactive)
MDA-MB-231
  GI50: > 100 µM (inactive)
HCT-116
  GI50: > 100 µM (inactive)
HOP-92
  GI50: > 100 µM (inactive)
MCF7
  GI50: > 100 µM (inactive)
M14
  GI50: > 100 µM (inactive)
COLO 205
  GI50: > 100 µM (inactive)
A549
  GI50: > 100 µM (inactive)
KM12
  GI50: > 100 µM (inactive)
MDA-MB-435
  GI50: > 100 µM (inactive)
NCI/ADR-RES
  GI50: > 100 µM (inactive)
IGROV-1
  GI50: > 100 µM (inactive)
A498
  GI50: > 100 µM (inactive)
TK-10
  GI50: > 100 µM (inactive)
NCI-H226
  GI50: > 100 µM (inactive)
T47D
  GI50: > 100 µM (inactive)
RPMI-8226
  GI50: > 100 µM (inactive)
SF-295
  GI50: > 100 µM (inactive)
UACC-62
  GI50: > 100 µM (inactive)
SW-620
  GI50: > 100 µM (inactive)
Malme-3M
  GI50: > 100 µM (inactive)
OVCAR-4
  GI50: > 100 µM (inactive)
NCI-H522
  GI50: > 100 µM (inactive)
MDA-N
  GI50: > 100 µM (inactive)
